The record followed here is US20130029970A1 (priority 2009, published 2013).

Like-named read-outs stand apart in the source and are kept apart here.

One may read the EC50 as the concentration at which the effect is half-maximal. Usually IC50 stands for the concentration that inhibits the measured activity by half.

One assay has as its target T1, human CB2 (hCB2) (Homo sapiens, UniProt P34972).
T1 construct: (cDNA clone) CNR0200000
Put plainly: 35S GTPγS binding assay, hCB2 agonist. It counts as biochemical. In a few lines:
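Agonist-stimulated [35S]GTPγS (0.1 nM) binding measured by scintillation proximity after 90 min at room temperature. Reaction buffer: 50 mM HEPES pH 7.4, 100 mM NaCl, 5 mM MgCl2, 0.001% saponin plus 20 uM GDP. Membranes (5 μg) came from transfected cells expressing hCB2 cDNA (pcDNA3.1+ vector).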
(Binding of GTPγS marks nucleotide exchange on a G protein.)

The target of another assay is T2, human CB2 receptors (Homo sapiens, UniProt P34972).
T2 construct: (cDNA clone) CNR0200000
Briefly: cAMP assay in HEK-293 cells, hCB2 agonist. It counts as cell-based. In a few lines: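 Stable hCB2 HEK-293 cells in HBSS/10 mM HEPES/0.1% fatty-acid-free BSA incubated 30 min at 37° C with compound; forskolin 90 uM in 3× compound mix.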
On the technique in general: Changes in cAMP serve as a functional read-out for many G protein-coupled receptors.

For assay [1], the target named is T3, recombinant human cannabinoid receptor CB1 (Homo sapiens, UniProt P21554).
T3 construct: (cDNA clone) CNR01L000
Put plainly: Cannabinoid receptor radioligand binding assay, [3H]-CP 55,940 displacement, hCB1. The essentials: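 Displacement of 0.5 nM [3H]-CP 55,940 (1 μM unlabeled CP 55,940 for nonspecific) measured by filtration and scintillation counting. Binding ran 90 min at room temperature in pH 7.5 Tris buffer with 0.1% fatty-acid-free BSA, using recombinant hCB1 HEK-293 membranes at 2-10 μg protein.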

Where [2] appears, read: GTPγS agonist, HEK-293 membranes, read-out: hCB2 EC50 (GTPyS ag).
Setting [3] is: inhibition of forskolin-stimulated cAMP, HEK-293 cells, read-out: hCB2 EC50 (cAMP ag).

T3 sequence (P21554 whole entry): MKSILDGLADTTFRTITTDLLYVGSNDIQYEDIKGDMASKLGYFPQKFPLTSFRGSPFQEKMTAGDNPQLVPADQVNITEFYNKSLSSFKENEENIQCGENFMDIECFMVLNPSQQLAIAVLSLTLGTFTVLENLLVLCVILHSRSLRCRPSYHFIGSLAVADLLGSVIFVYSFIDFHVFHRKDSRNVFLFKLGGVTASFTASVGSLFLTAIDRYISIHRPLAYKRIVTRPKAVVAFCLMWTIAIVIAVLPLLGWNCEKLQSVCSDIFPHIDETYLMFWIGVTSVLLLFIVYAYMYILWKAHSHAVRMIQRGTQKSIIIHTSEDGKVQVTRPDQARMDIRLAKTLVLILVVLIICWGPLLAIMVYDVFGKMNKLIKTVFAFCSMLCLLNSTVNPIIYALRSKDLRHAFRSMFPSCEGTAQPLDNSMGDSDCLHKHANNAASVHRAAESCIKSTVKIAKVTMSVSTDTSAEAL
T2 sequence (P34972 whole entry): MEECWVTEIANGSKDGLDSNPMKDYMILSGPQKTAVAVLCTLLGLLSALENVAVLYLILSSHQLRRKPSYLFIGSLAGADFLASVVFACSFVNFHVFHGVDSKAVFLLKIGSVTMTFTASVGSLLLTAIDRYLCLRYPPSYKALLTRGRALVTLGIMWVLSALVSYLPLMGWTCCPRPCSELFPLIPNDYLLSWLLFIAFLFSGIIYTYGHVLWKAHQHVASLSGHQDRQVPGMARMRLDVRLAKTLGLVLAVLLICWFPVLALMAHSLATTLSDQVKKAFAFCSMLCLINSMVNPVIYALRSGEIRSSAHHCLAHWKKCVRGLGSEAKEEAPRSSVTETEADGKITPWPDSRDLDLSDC
T1 sequence (P34972 whole entry): as above

`COc1ccc(C(=O)c2cc3cc(C)n(CCNS(C)(=O)=O)c3s2)cc1` [Compound 71, N-(2-(2-(4-Methoxybenzoyl)-5-methyl-6H-thieno[2,3-b]pyrrol-6-yl)ethyl)methanesulfonamide]: the EC50 at human CB2 (hCB2) and on human CB2 receptors was 100 to 1000 nM throughout. Moreover, in assay [1], the IC50 is above 10000 nM.

As to `CCOC(=O)CCn1c(C)cc2cc(C(=O)c3ccc(OC)cc3)sc21` [Compound 72, Ethyl 3-(2-(4-methoxybenzoyl)-5-methyl-6H-thieno[2,3-b]pyrrol-6-yl)propanoate], the EC50 on human CB2 (hCB2) and at human CB2 receptors was 100 to 1000 nM throughout. Besides, in assay [1], the IC50 was above 10000 nM.

Regarding `COc1ccc(C(=O)c2cc3cc(C)n(CCCNC(=O)C(F)(F)F)c3s2)cc1` [Compound 76, 2,2,2-Trifluoro-N-(3-(2-(4-methoxybenzoyl)-5-methyl-6H-thieno[2,3-b]pyrrol-6-yl)propyl)acetamide], the EC50 on human CB2 (hCB2) and on human CB2 receptors was 100 to 1000 nM in each case. Further, the IC50 in assay [1] was 1000 to 10000 nM.

Regarding `COc1ccc(C(=O)c2cc3cc(C)n(CCC(C)(C)O)c3s2)cc1` [Compound 77, (6-(3-Hydroxy-3-methylbutyl)-5-methyl-6H-thieno[2,3-b]pyrrol-2-yl)(4-methoxyphenyl)methanone], the EC50 at human CB2 (hCB2) and at human CB2 receptors was 100 to 1000 nM each time. Also, in assay [1], the IC50 was in the range of 1000 to 10000 nM.

Take `Cc1ccc(C(=O)c2cc3cc(C)n(CCN4CCOCC4)c3s2)c(F)c1` [Compound 80, (2-Fluoro-4-methylphenyl)(5-methyl-6-(2-morpholinoethyl)-6H-thieno[2,3-b]pyrrol-2-yl)methanone]: the concentration for a half-maximal effect (EC50) at human CB2 (hCB2) and on human CB2 receptors was below 100 nM in each case. In addition, in assay [1], the IC50 was in the range of 1000 to 10000 nM.

As for `COc1ccc(C(=O)c2cc3cc(C)n(CCN4CCCC4)c3s2)cc1` [Compound 83, (4-Methoxyphenyl)(5-methyl-6-(2-(pyrrolidin-1-yl)ethyl)-6H-thieno[2,3-b]pyrrol-2-yl)methanone], the EC50 is 100 to 1000 nM at human CB2 (hCB2) and below 100 nM on human CB2 receptors. Also, the IC50 in assay [1] is 1000 to 10000 nM.

Regarding `Cc1ccc(C(=O)c2cc3cc(C)n(CCN4CCOCC4)c3s2)c(Cl)c1` [Compound 86, (2-Chloro-4-methylphenyl)(5-methyl-6-(2-morpholinoethyl)-6H-thieno[2,3-b]pyrrol-2-yl)methanone], the EC50 at human CB2 (hCB2) and at human CB2 receptors was below 100 nM in each case. Moreover, in assay [1], the IC50 lay within 100 to 1000 nM.

As to `COc1ccc(C(=O)c2cc3cc(C)n(CCN4CCOCC4)c3s2)c(C)c1` [Compound 88, (4-Methoxy-2-methylphenyl)(5-methyl-6-(2-morpholinoethyl)-6H-thieno[2,3-b]pyrrol-2-yl)methanone], the EC50 on human CB2 (hCB2) and on human CB2 receptors was below 100 nM each time. Besides, the IC50 in assay [1] fell in the range of 100 to 1000 nM.

Take `CCOc1ccc(C(=O)c2cc3cc(C)n(CCN4CCOCC4)c3s2)c(F)c1` [Compound 89, (4-Ethoxy-2-fluorophenyl)(5-methyl-6-(2-morpholinoethyl)-6H-thieno[2,3-b]pyrrol-2-yl)methanone]: the EC50 at human CB2 (hCB2) and on human CB2 receptors was below 100 nM in each case. Also, the IC50 in assay [1] is 1000 to 10000 nM.

As for `COc1ccc(C(=O)c2cc3cc(C)n(CCN4CCCCC4)c3s2)c(Cl)c1` [Compound 90, (2-Chloro-4-methoxyphenyl)(5-methyl-6-(2-(piperidin-1-yl)ethyl)-6H-thieno[2,3-b]pyrrol-2-yl)methanone], the EC50 at human CB2 (hCB2) and at human CB2 receptors was below 100 nM throughout. Moreover, the IC50 in assay [1] lay in the range of 100 to 1000 nM.

As for `COc1ccc(C(=O)c2cc3cc(C)n(CCN4CCCC4)c3s2)c(F)c1` [Compound 92, (2-Fluoro-4-methoxyphenyl)(5-methyl-6-(2-(pyrrolidin-1-yl)ethyl)-6H-thieno[2,3-b]pyrrol-2-yl)methanone], the EC50 at human CB2 (hCB2) and on human CB2 receptors was below 100 nM throughout. Also, in assay [1], the IC50 lay in the range of 1000 to 10000 nM.

Turning to `COc1ccc(C(=O)c2cc3cc(C)n(CCN4CCCC4)c3s2)c(Cl)c1` [Compound 93, (2-Chloro-4-methoxyphenyl)(5-methyl-6-(2-(pyrrolidin-1-yl)ethyl)-6H-thieno[2,3-b]pyrrol-2-yl)methanone], the EC50 on human CB2 (hCB2) and on human CB2 receptors was below 100 nM in each case. In addition, the IC50 in assay [1] fell in the range of 100 to 1000 nM.

For `COc1ccc(C(=O)c2cc3cc(C)n(CCCNS(C)(=O)=O)c3s2)c(C)c1` [Compound 96, N-(3-(2-(4-Methoxy-2-methylbenzoyl)-5-methyl-6H-thieno[2,3-b]pyrrol-6-yl)propyl)methanesulfonamide], the EC50 on human CB2 (hCB2) and at human CB2 receptors was below 100 nM each time. In assay [1], the IC50 lay within 1000 to 10000 nM.

On to `COc1ccc(C(=O)c2cc3cc(C)n(CCN4CCCCC4)c3s2)c(F)c1` [Compound 98, (2-Fluoro-4-methoxyphenyl)(5-methyl-6-(2-(piperidin-1-yl)ethyl)-6H-thieno[2,3-b]pyrrol-2-yl)methanone], for which the EC50 at human CB2 (hCB2) and on human CB2 receptors was below 100 nM each time. Also, the IC50 in assay [1] fell in the range of 1000 to 10000 nM.

Turning to `COc1ccc(C(=O)c2cc3cc(C)n(CCN4CCCCC4)c3s2)c(O)c1` [Compound 99, (2-Hydroxy-4-methoxyphenyl)(5-methyl-6-(2-(piperidin-1-yl)ethyl)-6H-thieno[2,3-b]pyrrol-2-yl)methanone], the EC50 on human CB2 (hCB2) and at human CB2 receptors was below 100 nM each time. In assay [1], the 50% inhibitory concentration (IC50) was 1000 to 10000 nM.

As to `COc1ccc(C(O)c2cc3cc(C)n(CCN4CCOCC4)c3s2)cc1` (stereo not drawn) [Compound 100, (4-Methoxyphenyl)(5-methyl-6-(2-morpholinoethyl)-6H-thieno[2,3-b]pyrrol-2-yl)methanol], the EC50 at human CB2 (hCB2) (setting [2]) and on human CB2 receptors (setting [3]) was below 100 nM each time. In assay [1], the IC50 is 1000 to 10000 nM.

As to `COc1ccc(C(C)(O)c2cc3cc(C)n(CCN4CCOCC4)c3s2)cc1` (stereo not drawn) [Compound 101, 1-(4-methoxyphenyl)-1-(5-methyl-6-(2-morpholinoethyl)-6H-thieno[2,3-b]pyrrol-2-yl)ethanol], the EC50 on human CB2 (hCB2) (setting [2]) and at human CB2 receptors (setting [3]) was below 100 nM each time. Besides, the IC50 in assay [1] was in the range of 1000 to 10000 nM.

`COc1ccc(C(=O)c2cc3cc(C)n(CCCCNS(C)(=O)=O)c3s2)cc1` [Compound 102, N-(4-(2-(4-Methoxybenzoyl)-5-methyl-6H-thieno[2,3-b]pyrrol-6-yl)butyl)methanesulfonamide]: the EC50 on human CB2 (hCB2) (setting [2]) and at human CB2 receptors (setting [3]) was below 100 nM throughout. Further, the IC50 in assay [1] was 1000 to 10000 nM.

For `COc1ccc(Cn2c(C)cc3cc(C(=O)c4ccc(OC)cc4)sc32)cc1` [Compound 103, (6-(4-Methoxybenzyl)-5-methyl-6H-thieno[2,3-b]pyrrol-2-yl)(4-methoxyphenyl)methanone], the EC50 at human CB2 (hCB2) and on human CB2 receptors was 100 to 1000 nM each time. In addition, the IC50 in assay [1] lay within 1000 to 10000 nM.

In the case of `COc1ccc(C(=S)c2cc3cc(C)n(CCN4CCOCC4)c3s2)cc1` [Compound 104, (4-methoxyphenyl)(5-methyl-6-(2-morpholinoethyl)-6H-thieno[2,3-b]pyrrol-2-yl)methanethione], the EC50 on human CB2 (hCB2) and on human CB2 receptors was 100 to 1000 nM throughout. Also, the IC50 in assay [1] lay in the range of 1000 to 10000 nM.

Regarding `COc1ccc(C(=O)c2cc3cc(C)n(CCCNS(N)(=O)=O)c3s2)cc1` [Compound 105], the values for the EC50 on human CB2 (hCB2) and at human CB2 receptors were 100 to 1000 nM and 1000 to 10000 nM, respectively. For the same molecule, the IC50 in assay [1] was above 10000 nM.
